From patent publication US20250345363A1, “ANTIMICROBIAL AND ANTIBIOFILM COMPOSITIONS AND USES THEREOF” (MHCombiotic Inc., priority 2024, published 2025)

Key:
Format in all cases: cell-based
[1] = test system: bacteria/fungi samples from Example 1; test: Planktonic susceptibility, MIC and MBC in 96-well microtiter plates; details: averaged results
Method: Planktonic Susceptibility. Testing of planktonic susceptibility was conducted using MIC and MBC assessments on bacterial strains using 96-well microtiter plates. To prepare the wells for bacteria, serial dilutions of the antibacterial agents were Carried out along the rows of two microtiter plates. The antibacterials were 2-fold diluted with Mueller-Hinton broth (MHB) in each column, reaching a volume of 75 μL. The 1.0 McFarland standard was diluted 15-fold in MHB, and 75 μL of inoculum was added to the wells treated with antibacterials, resulting in a total volume of 150 μL. The microtiter plates were covered, then shake-incubated overnight at 150 rpm and 37° C. MIC was determined based on visible bacterial growth. In cases of Antibacterial opacity or ambiguous results, streaking of well cultures on Mueller-Hinton agar (MHA), overnight incubation, and subsequent comparison to controls were performed. MBC was determined by transferring 3 u L of culture from all MIC microtiter plate wells to 147 μL of MHB in fresh plates. These plates were shake-incubated overnight at 150 rpm and 37° C., and bacterial growth was visually inspected. Combination Antimicrobial Efficacy Testing. This checkerboard (96-well microtiter plates) included one column just media without bacteria/fungi and MBAs/PBCs (as a negative control), and one column without MBA/PBCs, with media, and bacteria/fungi (as a growth and positive controls control), MBAs and/or PBCs were diluted ½ across the rows (19, 20). For each analysis, the same MIC and MBC/MFC steps indicated above were conducted for surveying the bacteriostatic, bactericidal, and reading synergism effects of MBAs with PBCs combinations.
Samples from Example 1 were tested using combinations of additives as well as additives on their own for measuring bacteriostatic effects, bactericidal effects and biofilm inhibition properties.
Method of bacteriostatic effects, bactericidal effects explained in example 1 using MIC and MBC methods, respectively.

[2] = test system: bacteria/candida biofilm (samples from Example 1); test: Prevention of biofilm formation, MBIC by crystal violet assay; details: 48 hours at 37° C.; averaged results; unit not given
Method: For the prevention of biofilm formation, desired concentrations of metals (loid) and/or PBCs were added to 96 wells, with 1.0×10^6 CFU/ml bacteria/candida added to each well. The plates were then incubated for 48 hours at 37° C. in a microplate shaker incubator at 150 rpm. Afterward, the planktonic cells and spent medium were discarded, and the adhered biomass was rinsed twice with distilled water. Biofilm biomass and minimum biofilm inhibitory concentration (MBIC) were determined using the crystal violet assay. The well with no bacterial biofilm and an OD600 absorption of zero was considered the MBIC. Results from at least three separate biological replicates were averaged.
In the crystal violet assay, the microplates or Calgary biofilm device were rinsed twice with 200 μl of 0.9% saline, then stained with 200 μl of a 0.1% crystal violet solution for 30minutes. Following staining, the microplates and pegs were washed three times with 200 μl of ddH2O to remove excess dye. Biofilm quantification was performed by sonication using a 250HT™ ultrasonic cleaner (VWR International) set at 60 Hz for 10 minutes into 200 μl of 70% ethanol, and absorbance was read at 600 nm using 70% ethanol as the blank.

[3] = test system: 11 different gram-positive and gram-negative bacteria as well as 7 different fungi, in total 18 microbes; test: Combination antimicrobial % efficacy in comparison to silver (MIC, MBC/MFC, MBIC averaged); details: molar ratios Zinc 1:Carvacrol 3:Resveratrol 1:THC 0.1:CBD 0.1, averaged over all microbes and MIC, minimum of three biological repeats
Description: Samples of 11 different gram-positive and gram-negative bacteria as well as 7 different fungi, in total 18 microbes included Pseudomonas aeruginosa ATCC 27853, Pseudomonas aeruginosa PAO1, Klebsiella pneumoniae ATCC 11296, Staphylococcus aureus ATCC 25923, Methicillin resistant S. aureus (MRSA) ATCC 33591, Escherichia coli ATCC 25922,Enterococcus faecium ATCC 19434, Staphylococcus epidermidis ATCC 12228, Enterococcus faecalis ATCC 29212, Proteus mirabilisATCC 35659, Acinetobacter baumannii CDC strain AR Bank #0033, Candida albicans ATCC 90028, Candida glabrata ATCC 2001, Candida parasilosis ATCC 22019, Candida krusei ATCC 14243, Candida tropicalis ATCC 13803, Candida auris ATCC MYA-5002, Aspergillus fumigatusATCC 16404 were used.
Metal (loid)-based antimicrobials (MBAs) including, silver nitrate (AgNO3, Sigma-Aldrich, St Louis, MO, USA Lot #M3259), potassium tellurite (K2TeO3, Sigma-Aldrich, St Louis, MO, USA, Cat #P2358-12C), hydrogen tetrachloroaurate (III) trihydrate (AuCl4.3H2O, Alfa Acsar Tweksbury, MA, USA, Lot #U17G046), zinc oxide nanoparticles, <100 nm (Sigma Aldrich), zinc sulfate (ZnSO4·1H2O), and zinc sulfate (ZnSO4.7H2O) were received from Fisher Scientific (Fair Lawn, NJ, USA, Lot #723689). […]
Planktonic Susceptibility. […] MIC was determined based on visible bacterial growth. […]

microbes = test: Evaluation of zinc sources for antimicrobial properties; details: comparison of zinc sources

C[N+](C)(C)CC(=O)O [Betaine (0.1%), Betaine]
Bactericidal (MBC) ([1]; unit inferred, unit assumed): 1 µg/mL | Bacteriostatic (MIC) ([1]; unit inferred, unit assumed): 1 µg/mL | Biofilm Inhibition (MBIC) [2]: 1

OO [H2O2 (1.5%), hydrogen peroxide]
Bactericidal (MBC) ([1]; unit inferred, unit assumed): 0.5 µg/mL | Bacteriostatic (MIC) ([1]; unit inferred, unit assumed): 0.5 µg/mL | Biofilm Inhibition (MBIC) [2]: 0.5

OO [H2O2 (3%), hydrogen peroxide]
Bactericidal (MBC) ([1]; unit inferred, unit assumed): 0.5 µg/mL | Bacteriostatic (MIC) ([1]; unit inferred, unit assumed): 0.25 µg/mL | Biofilm Inhibition (MBIC) [2]: 0.5

Cc1ccc(C(C)C)cc1O [Carvacrol, 5-Isopropyl-2-methylphenol]
Total antimicrobial efficacy percent over silver alone, including Antibacterial and antibiofilm efficacy (%) [3]: 1.3%

O.O.O.O.O.O.O.O=S(=O)([O-])[O-].[Zn+2] [zinc sulfate heptahydrate]
Antimicrobial effects of zinc source (in words) (microbes): comparable to zinc sulfate monohydrate

benzalkonium chloride [Liquid BZK (0.1%)]
Bacteriostatic (MIC) ([1]; unit inferred, unit assumed): 0.25 µg/mL | Bactericidal (MBC) ([1]; unit not given): (0.25-0.5) | Biofilm Inhibition (MBIC) [2]: (0.25-0.5)
